Results reported in PubChem BioAssay (NCI).
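Five compound concentrations were applied to cells in 96-well plates for 48 hours; endpoints were derived by simple linear interpolation of the resulting dose-response curve. TGI is the concentration that stops growth completely.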

Tests used:
Test in all cases: NCI anticancer screen, dose series, 48 h
NCI-H460 lung = tested on: NCI-H460 lung
SK-MEL-2 melanoma = tested on: SK-MEL-2 melanoma
SNB-75 CNS = tested on: SNB-75 CNS
SK-MEL-5 melanoma = tested on: SK-MEL-5 melanoma
NCI-H522 lung = tested on: NCI-H522 lung
HT29 colon = tested on: HT29 colon
SF-295 CNS = tested on: SF-295 CNS
DMS 273 small cell lung = tested on: DMS 273 small cell lung
SK-OV-3 ovarian = tested on: SK-OV-3 ovarian
SNB-19 CNS = tested on: SNB-19 CNS
MALME-3M melanoma = tested on: MALME-3M melanoma
EKVX NSCLC = tested on: EKVX NSCLC
OVCAR-4 ovarian = tested on: OVCAR-4 ovarian
SR leukemia = tested on: SR leukemia
KM20L2 colon = tested on: KM20L2 colon
SNB-78 CNS = tested on: SNB-78 CNS
HOP-92 NSCLC = tested on: HOP-92 NSCLC
OVCAR-5 ovarian = tested on: OVCAR-5 ovarian
UACC-62 melanoma = tested on: UACC-62 melanoma
DMS 114 small cell lung = tested on: DMS 114 small cell lung
HCC-2998 colon = tested on: HCC-2998 colon
SW-620 colon = tested on: SW-620 colon
ACHN renal = tested on: ACHN renal
786-0 renal = tested on: 786-0 renal
KM12 colon = tested on: KM12 colon
SF-539 CNS = tested on: SF-539 CNS
HCT-116 colon = tested on: HCT-116 colon
COLO 205 colon = tested on: COLO 205 colon
M14 melanoma = tested on: M14 melanoma
RPMI-8226 leukemia = tested on: RPMI-8226 leukemia
NCI-H23 lung = tested on: NCI-H23 lung
TK-10 renal = tested on: TK-10 renal
UO-31 renal = tested on: UO-31 renal
SF-268 CNS = tested on: SF-268 CNS
SN12C renal = tested on: SN12C renal
CCRF-CEM leukemia = tested on: CCRF-CEM leukemia
M19-MEL melanoma = tested on: M19-MEL melanoma
NCI-H226 lung = tested on: NCI-H226 lung
UACC-257 melanoma = tested on: UACC-257 melanoma
A549 NSCLC = tested on: A549 NSCLC
RXF 393 renal = tested on: RXF 393 renal
HCT-15 colon = tested on: HCT-15 colon
IGROV1 ovarian = tested on: IGROV1 ovarian
CAKI-1 renal = tested on: CAKI-1 renal
OVCAR-8 ovarian = tested on: OVCAR-8 ovarian
U251 CNS = tested on: U251 CNS
SK-MEL-28 melanoma = tested on: SK-MEL-28 melanoma
LOX IMVI melanoma = tested on: LOX IMVI melanoma
K-562 leukemia = tested on: K-562 leukemia
HL-60(TB) leukemia = tested on: HL-60(TB) leukemia
HOP-62 NSCLC = tested on: HOP-62 NSCLC
OVCAR-3 ovarian = tested on: OVCAR-3 ovarian
A498 renal = tested on: A498 renal
MOLT-4 leukemia = tested on: MOLT-4 leukemia
NCI/ADR-RES ovarian = tested on: NCI/ADR-RES ovarian
MCF7 breast = tested on: MCF7 breast
HS 578T breast = tested on: HS 578T breast
MDA-MB-435 = tested on: MDA-MB-435
MDA-N = tested on: MDA-N
PC-3 prostate = tested on: PC-3 prostate
T-47D breast = tested on: T-47D breast
BT-549 breast = tested on: BT-549 breast
MDA-MB-231 breast = tested on: MDA-MB-231 breast
DU-145 prostate = tested on: DU-145 prostate

C=CCCCC(C#N)(c1ccccc1)N1CCCC1 (stereo not drawn)
TGI (NCI-H460 lung): > 100 µM
TGI (SK-MEL-2 melanoma): > 100 µM
TGI (SNB-75 CNS): > 100 µM
TGI (SK-MEL-5 melanoma): > 100 µM
TGI (NCI-H522 lung): > 100 µM
TGI (HT29 colon): > 100 µM
TGI (SF-295 CNS): > 100 µM
TGI (DMS 273 small cell lung): > 100 µM
TGI (SK-OV-3 ovarian): > 100 µM
TGI (SNB-19 CNS): > 100 µM
TGI (MALME-3M melanoma): > 100 µM
TGI (EKVX NSCLC): > 100 µM
TGI (OVCAR-4 ovarian): > 100 µM
TGI (SR leukemia): > 100 µM
TGI (KM20L2 colon): > 100 µM
TGI (SNB-78 CNS): > 100 µM
TGI (HOP-92 NSCLC): > 100 µM
TGI (OVCAR-5 ovarian): > 100 µM
TGI (UACC-62 melanoma): > 100 µM
TGI (DMS 114 small cell lung): > 100 µM
TGI (HCC-2998 colon): > 100 µM
TGI (SW-620 colon): > 100 µM
TGI (ACHN renal): > 100 µM
TGI (786-0 renal): > 100 µM
TGI (KM12 colon): > 100 µM
TGI (SF-539 CNS): > 100 µM
TGI (HCT-116 colon): > 100 µM
TGI (COLO 205 colon): > 100 µM
TGI (M14 melanoma): > 100 µM
TGI (RPMI-8226 leukemia): > 100 µM
TGI (NCI-H23 lung): > 100 µM
TGI (TK-10 renal): > 100 µM
TGI (UO-31 renal): > 100 µM
TGI (SF-268 CNS): > 100 µM
TGI (SN12C renal): > 100 µM
TGI (CCRF-CEM leukemia): > 100 µM
TGI (M19-MEL melanoma): > 100 µM
TGI (NCI-H226 lung): > 100 µM
TGI (UACC-257 melanoma): > 100 µM
TGI (A549 NSCLC): > 100 µM
TGI (RXF 393 renal): > 100 µM
TGI (HCT-15 colon): > 100 µM
TGI (IGROV1 ovarian): > 100 µM
TGI (CAKI-1 renal): > 100 µM
TGI (OVCAR-8 ovarian): > 100 µM
TGI (U251 CNS): > 100 µM
TGI (SK-MEL-28 melanoma): > 100 µM
TGI (LOX IMVI melanoma): > 100 µM
TGI (K-562 leukemia): > 100 µM
TGI (HL-60(TB) leukemia): > 100 µM
TGI (HOP-62 NSCLC): > 100 µM
TGI (OVCAR-3 ovarian): > 100 µM
TGI (A498 renal): > 100 µM
TGI (MOLT-4 leukemia): > 100 µM

COc1cc(C2c3cc4c(cc3CC3COC(=O)N32)OCO4)cc(OC)c1OC (stereo not drawn)
TGI (NCI-H460 lung): > 100 µM
TGI (SK-MEL-2 melanoma): > 100 µM
TGI (NCI/ADR-RES ovarian): 4.26 µM
TGI (SNB-75 CNS): > 100 µM
TGI (SK-MEL-5 melanoma): 35.6 µM
TGI (NCI-H522 lung): 5.66 µM
TGI (MCF7 breast): > 100 µM
TGI (HS 578T breast): > 57.2 µM
TGI (HT29 colon): 5.14 µM
TGI (SF-295 CNS): 5.35 µM
TGI (SK-OV-3 ovarian): > 100 µM
TGI (SNB-19 CNS): > 100 µM
TGI (MALME-3M melanoma): > 100 µM
TGI (EKVX NSCLC): > 100 µM
TGI (OVCAR-4 ovarian): > 100 µM
TGI (SR leukemia): > 28.7 µM
TGI (HOP-92 NSCLC): > 94.9 µM
TGI (OVCAR-5 ovarian): > 100 µM
TGI (UACC-62 melanoma): > 100 µM
TGI (HCC-2998 colon): 8.7 µM
TGI (MDA-MB-435): 1.44 µM
TGI (MDA-N): 1.28 µM
TGI (PC-3 prostate): > 100 µM
TGI (SW-620 colon): > 100 µM
TGI (ACHN renal): > 100 µM
TGI (786-0 renal): > 100 µM
TGI (T-47D breast): > 100 µM
TGI (KM12 colon): > 61.7 µM
TGI (SF-539 CNS): 5.8 µM
TGI (HCT-116 colon): > 100 µM
TGI (COLO 205 colon): 4.89 µM
TGI (M14 melanoma): > 100 µM
TGI (RPMI-8226 leukemia): > 100 µM
TGI (NCI-H23 lung): > 31.6 µM
TGI (TK-10 renal): > 100 µM
TGI (UO-31 renal): > 100 µM
TGI (SF-268 CNS): > 100 µM
TGI (BT-549 breast): > 100 µM
TGI (SN12C renal): > 48.1 µM
TGI (CCRF-CEM leukemia): > 36.4 µM
TGI (NCI-H226 lung): > 92.5 µM
TGI (UACC-257 melanoma): > 100 µM
TGI (A549 NSCLC): > 100 µM
TGI (RXF 393 renal): > 100 µM
TGI (HCT-15 colon): > 27.9 µM
TGI (MDA-MB-231 breast): 30 µM
TGI (IGROV1 ovarian): > 100 µM
TGI (CAKI-1 renal): > 100 µM
TGI (OVCAR-8 ovarian): > 100 µM
TGI (U251 CNS): > 31.6 µM
TGI (SK-MEL-28 melanoma): > 100 µM
TGI (LOX IMVI melanoma): > 100 µM
TGI (K-562 leukemia): > 100 µM
TGI (DU-145 prostate): > 100 µM
TGI (HL-60(TB) leukemia): 8.6 µM
TGI (HOP-62 NSCLC): > 100 µM
TGI (OVCAR-3 ovarian): 5.05 µM
TGI (A498 renal): > 100 µM
TGI (MOLT-4 leukemia): > 61.8 µM
